Compound | melting point [°C]
O=C(NCc1ccc(F)cc1)N1CCN2C(=O)OC(c3ccc(F)cc3)(c3ccc(F)cc3)C2C1 (stereo not shown) | 104 to 107
O=C(NCc1ccc(F)cc1)N1CCN2C(=O)OC3(c4ccccc4-c4ccccc43)C2C1 (stereo not shown) | 120 to 123
C[C@H]1CN(C(=O)NCc2ccc(F)cc2)C[C@H]2N1C(=O)OC2(c1ccccc1)c1ccccc1 | 153 to 156
N=C(NCc1ccccc1)N1CCN2C(=O)OC(c3ccccc3)(c3ccccc3)C2C1 (stereo not shown) | 68 to 69
COc1ccccc1C1(c2ccccc2OC)OC(=O)N2CCN(C(=O)NCc3ccc(F)cc3)CC21 (stereo not shown) | 172 to 173
CN(C)c1ccc(C2(c3ccc(N(C)C)cc3)OC(=O)N3CCN(C(=O)NCc4ccc(F)cc4)CC32)cc1 (stereo not shown) | 110 to 113
CCCC1(CCC)OC(=O)N2CCN(C(=O)NCc3ccc(F)cc3)CC21 (stereo not shown) | 74 to 77
N=C(NCc1ccc(F)cc1)N1CCN2C(=O)OC(c3ccccc3)(c3ccccc3)C2C1 (stereo not shown) [Compound 16, N-(4-Fluorobenzyl)-3-oxo-1,1-diphenyltetrahydro-1H-oxazolo[3,4-a]pyrazine-7(3H)-carboximidamide] | 82 to 85
O=C(NCc1ccc(F)cc1)N1CCN2C(=O)OC(C3CCCCC3)(C3CCCCC3)C2C1 (stereo not shown) | 94 to 95
Cc1ccccc1C1(c2ccccc2C)OC(=O)N2CCN(C(=O)NCc3ccc(F)cc3)CC21 (stereo not shown) | 217 to 219
Cc1ccc(C2(c3ccc(C)cc3)OC(=O)N3CCN(C(=O)NCc4ccc(F)cc4)CC32)cc1 (stereo not shown) | 89 to 90
O=C(NCc1ccc(F)cc1)N1C[C@H](c2ccccc2)N2C(=O)OC(c3ccccc3)(c3ccccc3)[C@H]2C1 [Compound 21, (5S,8aR)-N-(4-Fluorobenzyl)-3-oxo-1,1,5-triphenyltetrahydro-1H-oxazolo[3,4-a]pyrazine-7(3H)-carboxamide] | 105 to 107
O=C(NCc1ccc(F)cc1)N1CCN2C(=O)OC(c3ccc(Cl)cc3)(c3ccc(Cl)cc3)C2C1 (stereo not shown) | 77 to 79

Source: article PMC8041306 (Journal of Medicinal Chemistry, 2021)
